These results are taken from patent publication US4595678A, “N-substituted pseudo-aminosugars and pharmaceutical compositions containing same” (Takeda Chemical Industries, Ltd., priority 1982, dated 1986).

Where two headings read alike, the source gives them in different places.

Experiment [1] deals with maltase (porcine intestinal mucosa). Kind of experiment: Glucosidase inhibitory activity, maltase (maltose as substrate). The format is biochemical. Particulars: read-out: IC50 (maltase), 50% inhibition concentration, pH 6.8, 37° C., 10 minutes. As for the experimental part: (§1) The method of assaying the glucosidase inhibitory activity.
(§2) The inhibitory activities against maltase or saccharase prepared from porcine intestinal mucosa [prepared in accordance with the procedure as described by B. Borgstrom and A. Dahlqvist in Acta Chem. Scand., 12, 1997-2006, (1958)], when maltose or sucrose is used as a substrate, were determined by adding, to 0.25 ml of a solution of an enzyme prepared by diluting suitably with 0.02M phosphate buffer (pH 6.8), 0.5 ml of an inhibitory substance to be tested (compound [I] or a pharmaceutically acceptable salt thereof) in the same buffer and 0.25 ml of 0.05M maltose or 0.05M sucrose as the substrate in the same buffer, allowing the mixture to react at 37° C. for 10 minutes, then adding 3 ml of Glucose B-Test Reagent (a glucose oxidase reagent for measurement of glucose, produced by Wako Pure Chemical Co., Japan), further warming the mixture at 37° C. for 20 minutes and measuring the absorbance of the colored reaction solution at 505 nm.

Experiment [2] concerns the target T1, saccharase (porcine intestinal mucosa) (Sus scrofa, UniProt P56729).
T1 construct: prepared from porcine intestinal mucosa; from tissue; host or cells: porcine intestinal mucosa
Nature of the experiment: Glucosidase inhibitory activity, saccharase (sucrose as substrate). In kind it is biochemical. As for the experimental part: as §1, §2

The mark [3] stands for this setting: read-out: IC50 (saccharase), 50% inhibition concentration, pH 6.8, 37° C., 10 minutes.

T1 sequence (P56729 with tags, fused parts or gaps limits assumed): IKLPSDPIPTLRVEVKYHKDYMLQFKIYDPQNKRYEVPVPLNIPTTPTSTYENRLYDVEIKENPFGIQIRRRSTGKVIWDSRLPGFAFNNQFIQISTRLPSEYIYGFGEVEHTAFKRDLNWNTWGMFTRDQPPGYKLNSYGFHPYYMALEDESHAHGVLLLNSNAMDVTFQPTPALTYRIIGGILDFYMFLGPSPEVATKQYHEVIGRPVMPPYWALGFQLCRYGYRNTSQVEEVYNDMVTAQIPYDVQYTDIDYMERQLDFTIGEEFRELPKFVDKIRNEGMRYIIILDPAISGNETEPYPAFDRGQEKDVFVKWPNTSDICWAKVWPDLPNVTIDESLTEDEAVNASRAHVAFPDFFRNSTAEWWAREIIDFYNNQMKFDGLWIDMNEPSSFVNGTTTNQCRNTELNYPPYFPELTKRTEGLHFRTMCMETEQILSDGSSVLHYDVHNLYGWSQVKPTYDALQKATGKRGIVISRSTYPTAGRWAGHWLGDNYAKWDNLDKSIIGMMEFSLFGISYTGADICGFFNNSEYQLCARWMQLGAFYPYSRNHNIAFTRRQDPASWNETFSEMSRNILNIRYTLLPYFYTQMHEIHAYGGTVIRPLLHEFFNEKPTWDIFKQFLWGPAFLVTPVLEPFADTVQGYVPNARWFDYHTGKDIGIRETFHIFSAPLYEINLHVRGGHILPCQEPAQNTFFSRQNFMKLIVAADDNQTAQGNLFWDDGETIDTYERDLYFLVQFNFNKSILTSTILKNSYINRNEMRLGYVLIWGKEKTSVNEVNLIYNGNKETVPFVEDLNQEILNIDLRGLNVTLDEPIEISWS
T1 sequence (P56729 with tags, fused parts or gaps partner limits assumed): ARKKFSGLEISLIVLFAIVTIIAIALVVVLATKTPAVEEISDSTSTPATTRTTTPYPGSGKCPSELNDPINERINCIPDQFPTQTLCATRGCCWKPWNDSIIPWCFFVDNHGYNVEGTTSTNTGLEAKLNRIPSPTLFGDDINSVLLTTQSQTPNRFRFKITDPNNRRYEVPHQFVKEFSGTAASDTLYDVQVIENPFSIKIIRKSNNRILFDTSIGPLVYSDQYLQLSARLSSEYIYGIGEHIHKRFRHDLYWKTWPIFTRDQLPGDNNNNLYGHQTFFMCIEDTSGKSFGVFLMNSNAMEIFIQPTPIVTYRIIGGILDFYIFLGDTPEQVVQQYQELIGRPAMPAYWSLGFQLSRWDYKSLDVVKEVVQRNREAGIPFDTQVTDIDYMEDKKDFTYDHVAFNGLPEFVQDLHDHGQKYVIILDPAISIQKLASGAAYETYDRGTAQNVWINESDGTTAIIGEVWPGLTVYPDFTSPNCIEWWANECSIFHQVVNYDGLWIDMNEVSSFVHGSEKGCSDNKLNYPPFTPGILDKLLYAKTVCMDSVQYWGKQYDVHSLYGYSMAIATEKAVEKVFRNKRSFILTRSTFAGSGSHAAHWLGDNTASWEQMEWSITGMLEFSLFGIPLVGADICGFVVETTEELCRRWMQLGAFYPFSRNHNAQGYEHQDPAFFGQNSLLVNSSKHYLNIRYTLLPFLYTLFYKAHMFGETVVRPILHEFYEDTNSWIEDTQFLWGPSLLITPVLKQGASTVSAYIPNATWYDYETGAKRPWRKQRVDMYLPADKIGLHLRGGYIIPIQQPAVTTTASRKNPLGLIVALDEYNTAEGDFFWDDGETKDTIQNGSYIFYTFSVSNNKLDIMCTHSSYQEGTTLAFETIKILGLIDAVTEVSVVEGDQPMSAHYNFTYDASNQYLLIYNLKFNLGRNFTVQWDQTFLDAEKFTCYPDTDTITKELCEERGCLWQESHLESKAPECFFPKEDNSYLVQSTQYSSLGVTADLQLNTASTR

Regarding `N[C@H]1C[C@H](CO)C(N[C@H]2C[C@H](CO)[C@@H](O)[C@H](O)[C@H]2O)[C@H](O)[C@H]1O` (single isomer, unassigned) [Example 6, first eluted isomer], the IC50 came to 2900 nM in experiment [1] and 1600 nM in experiment [2] (setting [3]).

As for `N[C@H]1C[C@H](CO)C(N[C@H]2C[C@H](CO)[C@@H](O)[C@H](O)[C@H]2O)[C@H](O)[C@H]1O` (single isomer, unassigned) [Example 6, later eluted isomer], the IC50 in experiment [2] (setting [3]) stood at 78000 nM.

Turning to `N[C@H]1C[C@H](CO)C(N[C@H]2C[C@](O)(CO)[C@@H](O)[C@H](O)[C@H]2O)[C@H](O)[C@H]1O` (single isomer, unassigned) [Example 8,4-amino derivative from the first eluted component of Example 7], the IC50 in experiment [1] amounted to 3300 nM; in experiment [2] (setting [3]), 250 nM.

Turning to `N[C@H]1C[C@H](CO)C(N[C@H]2C[C@](O)(CO)[C@@H](O)[C@H](O)[C@H]2O)[C@H](O)[C@H]1O` (single isomer, unassigned) [Example 8,4-amino derivative from the later eluted component of Example 7], the results for the IC50 in experiment [1] and in experiment [2] (setting [3]) were 2800 nM and 230 nM, respectively.

In the case of `NC1CC(N)C(N[C@H]2C[C@](O)(CO)[C@@H](O)[C@H](O)[C@H]2O)C(O)C1O` (single isomer, unassigned) [Example 12, Isomer D, N-(2,4-Diamino-5,6-dihydroxycyclohexyl)valiolamine], the IC50 amounted to 1000 nM in experiment [1] and 88 nM in experiment [2] (setting [3]).

On to `C[C@H]1CC(O)[C@H](O)[C@@H](O)[C@@H]1N[C@H]1C[C@](O)(CO)[C@@H](O)[C@H](O)[C@H]1O` (single isomer, unassigned) [Example 21, isomer (a)], for which the IC50 in experiment [2] (setting [3]) turned out to be 35 nM.

For the compound `C[C@H]1CC(O)[C@H](O)[C@@H](O)[C@@H]1N[C@H]1C[C@](O)(CO)[C@@H](O)[C@H](O)[C@H]1O` (single isomer, unassigned) [Example 21, isomer (b)], the IC50 in experiment [2] (setting [3]) stood at 36 nM.

In experiment [2] (pH 6.8, 37° C., 10 minutes), `CO[C@H]1O[C@H](C)[C@H](N[C@H]2C[C@H](CO)[C@@H](O)[C@H](O)[C@H]2O)[C@H](O)[C@H]1O` [Example 1,6-deoxygalactopyranoside isomer, Methyl 4-[(1S,2S)-(2,4/3,5)-2,3,4-trihydroxy-5-hydroxymethylcyclohexyl]amino-4,6-dideoxy-α-D-galactopyranoside] yielded an IC50 of 5600 nM.

For `CO[C@H]1O[C@H](C)[C@@H](N[C@H]2C[C@H](CO)[C@@H](O)[C@H](O)[C@H]2O)[C@H](O)[C@H]1O` [Example 1,6-deoxyglucopyranoside isomer, Methyl 4-[(1S,2S)-(2,4/3,5)-2,3,4-trihydroxy-5-hydroxymethylcyclohexyl]amino-4,6-dideoxy-α-D-glucopyranoside], the IC50 in experiment [1] was 1800 nM; in experiment [2] (pH 6.8, 37° C., 10 minutes), 740 nM.

`CO[C@H]1O[C@H](CO)[C@H](N[C@H]2C[C@H](CO)[C@@H](O)[C@H](O)[C@H]2O)[C@H](O)[C@H]1O` [Example 3, Galactopyranoside isomer, Methyl 4-[(1S,2S)-(2,4/3,5)-2,3,4-trihydroxy-5-hydroxymethylcyclohexyl]amino-4-deoxy-α-D-galactopyranoside] had an IC50 in experiment [2] (pH 6.8, 37° C., 10 minutes) of 1000 nM.

For `CO[C@H]1O[C@H](CO)[C@@H](N[C@H]2C[C@H](CO)[C@@H](O)[C@H](O)[C@H]2O)[C@H](O)[C@H]1O` [Example 3, Glucopyranoside isomer, Methyl 4-[(1S,2S)-(2,4/3,5)-2,3,4-trihydroxy-5-hydroxymethylcyclohexyl]amino-4-deoxy-α-D-glucopyranoside], the IC50 in experiment [1] was found to be 4400 nM; in experiment [2] (pH 6.8, 37° C., 10 minutes), 580 nM.

`CO[C@H]1O[C@H](CO)[C@H](N[C@H]2C[C@](O)(CO)[C@@H](O)[C@H](O)[C@H]2O)[C@H](O)[C@H]1O` [Example 4, Galactopyranoside isomer, Methyl 4-[(1S,2S)-(2,4,5(OH)/3,5-(CH2 OH))-2,3,4,5-tetrahydroxy-5-hydroxymethylcyclohexyl]amino-4-deoxy-α-D-galactopyranoside]: the IC50 was determined as 320 nM in experiment [1] and 620 nM in experiment [2] (pH 6.8, 37° C., 10 minutes).

In the case of `CO[C@H]1O[C@H](CO)[C@@H](N[C@H]2C[C@](O)(CO)[C@@H](O)[C@H](O)[C@H]2O)[C@H](O)[C@H]1O` [Example 4, Glucopyranoside isomer, Methyl 4-[(1S,2S)-(2,4,5(OH)/3,5(CH2 OH))-2,3,4,5-tetrahydroxy-5-hydroxymethylcyclohexyl]amino-4-deoxy-α-D-glucopyranoside], the IC50 was 72 nM in experiment [1] and 80 nM in experiment [2] (pH 6.8, 37° C., 10 minutes).

In experiment [2] (pH 6.8, 37° C., 10 minutes), `O=C(N[C@H]1C[C@H](CO)C(N[C@H]2C[C@H](CO)[C@@H](O)[C@H](O)[C@H]2O)[C@H](O)[C@H]1O)OCc1ccccc1` (stereo partly drawn) [Example 5, [(1S,2S)-(2,4/3,5)-2,3,4-Trihydroxy-5-hydroxymethylcyclohexyl][(2S)-(2,6/3,4)-4-benzyloxycarbonylamino-2,3-dihydroxy-6-hydroxy-methylcyclohexyl]amine] returned an IC50 of 700 nM.

Consider `CCOC(=O)NC1CC(NC(=O)OCC)C(N[C@H]2C[C@](O)(CO)[C@@H](O)[C@H](O)[C@H]2O)C(O)C1O` (some centres unmarked) [Example 11, N-(2,4-Diethoxycarbonylamino-5,6-dihydroxycyclohexyl)valiolamine], for which the IC50 in experiment [1] was 9000 nM; in experiment [2] (setting [3]), 4900 nM.

For the compound `NC1CC(N)C(N[C@H]2C[C@H](CO)[C@@H](O)[C@H](O)[C@H]2O)C(O)C1O` (some centres unmarked) [Example 14, N-(2,4-Diamino-5,6-dihydroxycyclohexyl)validamine], the IC50 in experiment [2] (setting [3]) was 880 nM.

Take `OC[C@H]1C[C@H](N[C@@H]2C[C@H](CO)[C@@H](O)[C@H](O)[C@H]2O)[C@H](O)[C@@H](O)[C@@H]1O` [Example 17, (1R,2S) isomer, N-[(1R,2S)-(2,4/3,5)-2,3,4-trihydroxy-5-hydroxymethylcyclohexyl]validamine]: the IC50 in experiment [1] turned out to be 2200 nM; in experiment [2] (pH 6.8, 37° C., 10 minutes), 270 nM.

As to `OC[C@H]1C[C@@H](N[C@H]2C[C@](O)(CO)[C@@H](O)[C@H](O)[C@H]2O)[C@H](O)[C@@H](O)[C@@H]1O` [Example 18, (1R,2S) isomer, N-[(1R,2S)-(2,4/3,5)-2,3,4-trihydroxy-5-hydroxymethylcyclohexyl]valiolamine], the IC50 in experiment [1] is 44 nM; in experiment [2] (pH 6.8, 37° C., 10 minutes), 48 nM.

Take `OC[C@H]1C[C@H](N[C@H]2C[C@](O)(CO)[C@@H](O)[C@H](O)[C@H]2O)[C@H](O)[C@@H](O)[C@@H]1O` [Example 18, (1S,2S) isomer, N-[(1S,2S)-(2,4/3,5)-2,3,4-trihydroxy-5-hydroxymethylcyclohexyl]valiolamine]: the IC50 in experiment [2] (pH 6.8, 37° C., 10 minutes) stood at 5600 nM.

In experiment [2] (pH 6.8, 37° C., 10 minutes), `C[C@H]1C[C@H](N)[C@H](O)[C@@H](O)[C@H]1N[C@H]1C[C@](O)(CO)[C@@H](O)[C@H](O)[C@H]1O` [Example 20, isomer (b), N-[(1S,2S)-(2,6/3,4)-4-amino-2,3-dihydroxy-6-methylcyclohexyl]valiolamine] yielded an IC50 of 53 nM.

On to `C[C@H]1O[C@H](O[C@H]2[C@H](O)[C@@H](O)[C@@H]3OC[C@H]2O3)[C@H](O)[C@@H](O)[C@@H]1N[C@H]1C[C@](O)(CO)[C@@H](O)[C@H](O)[C@H]1O` [Example 25, isomer (b)], for which the IC50 in experiment [1] stood at 130 nM; in experiment [2] (pH 6.8, 37° C., 10 minutes), 25 nM.

Turning to `C[C@H]1O[C@H](O[C@H]2[C@H](O)[C@@H](O)C(O)O[C@@H]2CO)[C@H](O)[C@@H](O)[C@@H]1N[C@H]1C[C@](O)(CO)[C@@H](O)[C@H](O)[C@H]1O` (stereo partly drawn) [Example 28, 4-O-α-[4-[(1S)-(1,2,4,5(OH)/3,5(CH2 OH))-(2,3,4,5-Tetrahydroxy-5-(hydroxymethyl)cyclohexyl)amino]-4,6-dideoxy-D-glucopyranosyl]-D-glucopyranose], the IC50 was 120 nM in experiment [1] and 80 nM in experiment [2] (pH 6.8, 37° C., 10 minutes).

Take `OC[C@H]1C[C@H](NC2[C@@H](O)C(O)O[C@H](CO)[C@H]2O)[C@H](O)[C@@H](O)[C@@H]1O` (some centres unmarked) [N-(2,3,5-trihydroxy-6-hydroxymethyltetrahydropyran-4-yl)validamine]: the IC50 was 1900 nM in experiment [1] and 170 nM in experiment [2] (setting [3]).

`OCC1=C[C@H](NC2[C@@H](O)C(O)O[C@H](CO)[C@H]2O)[C@H](O)[C@@H](O)[C@@H]1O` (some centres unmarked) [N-(2,3,5-trihydroxy-6-hydroxymethyltetrahydropyran-4-yl)valienamine]: the IC50 in experiment [1] was found to be 31000 nM; in experiment [2] (setting [3]), 450 nM.

Regarding `OC[C@H]1OC(O)[C@H](O)C(N[C@H]2C[C@](O)(CO)[C@@H](O)[C@H](O)[C@H]2O)[C@@H]1O` (some centres unmarked) [N-(2,3,5-trihydroxy-6-hydroxymethyltetrahydropyran-4-yl)valiolamine], the IC50 in experiment [1] is 110 nM; in experiment [2] (setting [3]) it was 90 nM.

As for `CC1(C)O[C@H]2O[C@H]([C@H](O)CO)C(N[C@H]3C[C@](O)(CO)[C@@H](O)[C@H](O)[C@H]3O)[C@H]2O1` (some centres unmarked) [N-[2,3-O-isopropylidene-2,3-dihydroxy-5-(1,2-dihydroxyethyl)tetrahydrofuran-4-yl]valiolamine], the IC50 in experiment [2] (setting [3]) is 37000 nM.

As for `CO[C@H]1O[C@H](C)[C@@H](N[C@H]2C=C(CO)[C@@H](O)[C@H](O)[C@H]2O)[C@H](O)[C@H]1O` [Reference Example 40,6-deoxyglucopyranoside isomer, Methyl 4-[(1S,6S)-(4,6/5)-4,5,6-trihydroxy-3-hydroxymethyl-2-cyclohexen-1-yl]amino-4,6-dideoxy-α-D-glucopyranoside], the IC50 in experiment [2] (pH 6.8, 37° C., 10 minutes) was determined as 700 nM.

`CC1(O)CC(N)C(O)C(O)C1O` (centres unmarked) [compound 26, 7-Deoxyvaliolamine] showed an IC50 in experiment [2] (pH 6.8, 37° C., 10 minutes) of 24000 nM.
